We go through one molecule from patent US20060099170A1, “Compositions for inducing increased levels of beta-chemokines and methods of use therefor” (priority 2002, published 2006).

A word on the inhibition: it is the relative decrease from the control value, in per cent.

The test system of series [1] is PBMCs. Briefly: PBMC proliferation and viability (MTT assay). Here is the method:
(§1) Cultures of peripheral blood mononuclear cells (PBMCs) and monocyte-derived macrophages (MDMs) were performed on normal donors as described (Poli, et al. 1993, Perno, et al., 1993). PBMCs were maintained in the presence of 100 units/ml rhIL-2 (Roche Molecular Biochemicals). Cell viability was determined by Trypan blue staining or by the MTT assay (Roche Molecular Biochemicals). RAPA was purchased from Calbiochem. The CCR5 antagonist TAK-779 was obtained from the National Institutes of Health AIDS Research and Reference Reagent Program (Rockville, Md.). CCR5 surface expression was measured on PBMCs cultured in the presence of IL-2 for 7-10 days. Staining was done as described (Lane, et al. 1999), but using CCR5 mAb 182 (R & D Systems). Background staining was determined by adding an isotype-matched control (IgG2b, R&D Systems) instead of the anti-CCR5 mAb. Data were acquired by using a FACS Calibur flow cytometer (BD Biosciences) and analyzed by using FLOWJO (Tree Star, San Carlos, Calif.).
Donor PBMCs were cultured in the presence of IL-2 and RAPA (10-fold serial dilutions, from 10^4 to 0.01 nM).
Background: Formazan colour is commonly taken as a measure of viable cells.

The test system of series [2] is HIV-1 ADA. Briefly: Antiviral activity of RAPA in monocyte-derived macrophages (RT assay). Format: cell-based. Here is the method: as §1
(§2) For infection of PBMCs, fresh donor PBMCs were cultured for 7 days in medium containing IL-2. On day 7, cells were exposed to the virus for 3 h. Nonadsorbed virus was removed by washing cells with PBS three times. Infected cells were cultured in IL-2 medium. Infection of MDMs was carried out as described before (Pemo, et al. 1993). Unless otherwise indicated, PBMCs were infected by using a moi of 0.001, and monocyte-derived macrophages (MDMs) were infected by using a moi of 0.002. Virus growth was monitored in culture supernatants by measuring p24 antigen levels by ELISA (NEN) or by measuring viral RT activity in an RT assay (Willey, et al., 1988).
(§3) On day 5, cells were infected with HIV-1 ADA. Infected cells were cultured in the presence of RAPA for an additional 14 days. Virus production was measured on the culture supernatants on days 7, 10, and 14 after infection.
In the above-described experiment, monocytes had been pretreated with RAPA during the 5-day differentiation period. To control for the possible interference of RAPA with the process of monocyte differentiation, a new infection experiment in which RAPA was not present during the 5-day monocyte differentiation period was designed. To this end, fresh monocytes were cultured for 5 days in the absence of RAPA. On day 5, cells were infected with HIV-1 ADA and then exposed to RAPA.

Series [3] can be described thus: Tolerability of Rapamycin in healthy volunteers. In kind it is in vivo, human. The settings on record: 5 healthy volunteers, 2 mg/day after 6 mg loading dose, 14 days. The procedure:
HIV-1 has been shown in most instances to use the chemokine receptor, CCR5, as a co-receptor for entry into macrophages and CD4 lymphocytes. The natural ligands for the CCR5 co-receptor are proteins called β-Chemokines. […] To assess the activity of β-Chemokine production levels and its effects on CCR5 receptors in vivo an open-labeled, non-randomized observational trial was performed in which 5 healthy volunteers were given 2 mg/day of Rapamycin, following a 6 mg loading dose, for 14 days. Peripheral blood for determining β-Chemokines was obtained at the screening visit, days 7 and 14 of the Rapamycin dosing, and at day 28 (which was two weeks following the last dose of Rapamycin). All 5 subjects completed the study and Rapamycin was well-tolerated.

In a further series the test system is five R5 strains of HIV-1. As to the kind of experiment: Antiviral activity of low concentrations of RAPA in PBMCs, panel of R5 strains. In kind it is cell-based. The settings on record: Human immunodeficiency virus 1, PBMC. Here is the method:
(§4) The following viruses were used in infection experiments, including HIV-1 IIIb, HIV-1 ADA, HIV-1 BaL, HIV-1 JRFL, HIV-1 JRCSF, and HIV-1 SF162. HIV-1 IIIb is a T cell line-adapted lab strain that uses CXCR4 for entry into cells, whereas the rest are isolates that use CCR5.
as §2
RAPA at 0.01 nM inhibited R5 HIV-1 by 10-64% depending on the strains, whereas 0.1 nM RAPA inhibited virus replication by 15-85%. At 1 nM RAPA, all R5 viruses were inhibited by >90%.

Another series deals with HIV-1 SF 162. Briefly: Antiviral activity of RAPA in monocyte-derived macrophages. Format: cell-based. The settings on record: Human immunodeficiency virus 1, Macrophage; 0.01 nM RAPA; data not shown.
For the next series, the system named is MDMs. Briefly: Cell viability of MDMs (MTT assay). Format: cell-based, human. The settings on record: end of experiment (day 14). The procedure: as §1, §3
In series [4] the test system is PBMCs. Briefly: β-chemokine levels (ELISA) in supernatants of IL-2 PBMC cultures with RAPA. In kind it is cell-based, human. The procedure: RAPA was purchased from Calbiochem.
Levels of the β-chemokines MIP-1α, MIP-1β and RANTES were measured in culture supernatants by using ELISA kits (R & D Systems).
We next measured levels of the CCR5 ligands MIP-1α, MIP-1β, and RANTES in supernatants of RAPA-treated PBMC cultures. PBMCs from four donors were cultured in the presence of IL-2 and RAPA for 10 days. […] Among the different donors, RAPA-treated cultures contained 6-39-fold higher levels of MIP-1α than untreated cultures. Similarly, MIP-1β levels were increased 17-47-fold in the presence of RAPA as compared with untreated controls. […] Chemokine results obtained in two of the donors, showing disparity of RANTES levels in the presence of RAPA, are depicted in FIG. 8A.
The effect of RAPA on MIP-1β protein levels provided information regarding the mechanism by which RAPA increases β-chemokine levels. To this end, stimulated PBMCs from two normal donors and from a CCR5-null donor were cultured in the presence of RAPA as in previous experiments. MIP-1β levels in supernatants were evaluated on day 10. Representative results obtained in one of the normal donors are shown next to the results obtained on the CCR5-null donor (FIG. 8B).
PBMCs from a healthy donor were cultured in the presence of IL-2 and Rapamycin. On day 7, chemokines content in the supernatant was measured by ELISA and cell viability was determined by the MTT assay.

The conditions of series [5]: renal transplant recipients, cited from earlier work.
The test system of a further series is HIV-1 IIIb. As to the kind of experiment: Antiviral activity of RAPA in PBMCs (p24). Format: cell-based. The settings on record: Human immunodeficiency virus 1, IIIB, PBMC. The procedure:
as §4, §2
(§5) The antiviral activity of RAPA was assayed in PBMCs that had been cultured in the presence of RAPA for 7 days before infection. Cells were infected with the X4 HIV-1 IIIb and the R5 HIV-1 ADA strains. Infected cells were cultured in the presence of RAPA (same concentration as during pretreatment) for 7 additional days, during which time virus replication and cell viability were measured. […]

Series [6] relates to HIV-1 ADA. As to the kind of experiment: Antiviral activity of RAPA in PBMCs (p24). In kind it is cell-based. The settings on record: Human immunodeficiency virus 1, PBMC. The procedure: as §4, §2, §5
Where [7] appears, read: IL-2 and RAPA for 10 days, four donors.

Where two headings read alike, the source gives them in different places. Where only a bound is given, the exact number is not on record here.

Take `CO[C@H]1C[C@@H]2CC[C@@H](C)[C@@](O)(O2)C(=O)C(=O)N2CCCC[C@H]2C(=O)O[C@H]([C@H](C)C[C@@H]2CC[C@@H](O)[C@H](OC)C2)CC(=O)[C@H](C)/C=C(\C)[C@@H](O)[C@@H](OC)C(=O)[C@H](C)C[C@H](C)/C=C/C=C/C=C/1C` [RAPA, rapamycin]: in the series with PBMCs [1] (IL-2, MTT assay on day 7), the “drug concentrations at which reduced proliferation was detected” value was at least 1 nM. For the same molecule, the “drug concentrations at which drug toxicity was observed” value with PBMCs [1] (data not shown) is given as “above 1 nM”. Moreover, the “inhibition of virus replication” value in the series with HIV-1 ADA [2] (1 nM RAPA added after infection, no RAPA during differentiation, day 14, two donors) was around 80%. The inhibition at 0.001 µM with HIV-1 ADA [2] (Human immunodeficiency virus 1, Macrophage, 336 h, 1 nM RAPA added after infection, no RAPA during differentiation, day 14, two donors, read-out: inhibition of virus replication) was around 60%; in the series with five R5 strains of HIV-1 (read-out: inhibition of all R5 viruses), above 90%. Also, the inhibition at 10 pM with HIV-1 ADA [2] (Human immunodeficiency virus 1, Macrophage, 0.01 nM RAPA, data not shown) was 64%; in the series on five R5 strains of HIV-1 (read-out: inhibition of R5 HIV-1), 10 to 64%; in the series on HIV-1 SF 162 it was 45%. Besides, the “inhibition of virus production” value with HIV-1 ADA [2] (RAPA 0.1-100 nM, day 14, monocytes pretreated 5 days) is on record as 70-95%. In [3], the tolerability result is on record as “well-tolerated”. Also, the inhibition at 0.0001 µM in the series with five R5 strains of HIV-1 (read-out: inhibition of virus replication (R5 HIV-1)) lay in the range of 15 to 85%. For the same molecule, the “RAPA concentrations at which cell viability was reduced” value in the series with MDMs is listed as above 10 nM. Besides, in the series on PBMCs [4] (CCR5-null donor, day 10), the MIP-1β levels increase is 1.2 fold. Further, the “MIP-1α levels, RAPA-treated versus untreated cultures” value in the series with PBMCs [4] (setting [7]) is on record as 6-39 fold. Besides, the “MIP-1β levels increase compared with untreated controls” value with PBMCs [4] (setting [7]) is listed as 17-47 fold. Moreover, in the series on PBMCs [4] (normal donor, day 10), the “MIP-1β protein increase compared with RAPA-untreated control” value worked out at 9.3 fold. Also, the figures for the therapeutic through levels in series [5] (daily 2 mg) and in series [5] (daily 5 mg) were 9.3 ± 4.4 nM and 18.9 ± 8 nM, respectively. Moreover, the inhibition at 0.01 µM in the series with HIV-1 IIIb (10 nM RAPA (range of 5-25%)) was 13.5%; in the series with HIV-1 ADA [6] (10 nM RAPA, average of seven experiments (range of 88-97%)), 91%. In addition, the inhibition at 0.1 µM in the series on HIV-1 IIIb (100 nM RAPA (range 29-60%)) came to 32%; in the series with HIV-1 ADA [6] (100 nM RAPA, seven experiments (range of 92-99%)), 94%.
